{"source": "paper PMC10729961", "about": "“Putative purine nucleoside interacting residues in the malaria parasite purine uptake transporter PfENT1 are critical for transporter function” (PLOS ONE, 2023)", "experiment_in_all_cases": "5-Fluorouridine (5-FUrd) toxicity assay", "assay_type_in_all_cases": "cell-based", "key": {"[1]": {"system": "yeast expressing N51C PfENT1", "conditions": "500 μM adenine plus 125 μM 5-FUrd, OD600 at 24 h", "procedure": "(§1) 5-FUrd toxicity was measured in a subset of the PfENT1 mutants. Mutants were grown overnight in SDM with 1 mM adenine. Meanwhile, purine auxotrophic yeast were grown in YPD overnight. Yeast strains were spun down and resuspended in sterile water then added to the honeycomb plates with SDM media with NP40 (final concentration of 0.1%) containing either no adenine, 500 μM adenine, or 500 μM adenine plus 125 μM 5-FUrd (Fisher Scientific Cat. #AAJ6208303) with an initial OD600 = 0.05 and a final volume of 150 μL. Typically, 10 μL of yeast (final concentration of resuspended yeast OD600 = around 0.8) were added to 140 μL of media. Each trial contained triplicates. The 100-well honeycomb plate was placed in the Bioscreen C for 24-h under continuous high shaking at 30°C. The endpoint OD600 was measured at 24 h. Each experiment was repeated at least three times on separate days."}, "[2]": {"system": "yeast expressing F286C PfENT1", "conditions": "500 μM adenine plus 125 μM 5-FUrd, OD600 at 24 h", "procedure": "as §1"}, "[3]": {"system": "yeast expressing L50C PfENT1", "conditions": "500 μM adenine plus 125 μM 5-FUrd, OD600 at 24 h", "procedure": "as §1"}, "[4]": {"system": "yeast expressing S290C PfENT1", "conditions": "500 μM adenine plus 125 μM 5-FUrd, OD600 at 24 h", "procedure": "as §1"}, "[5]": {"system": "yeast expressing R291C PfENT1", "conditions": "500 μM adenine plus 125 μM 5-FUrd, OD600 at 24 h", "procedure": "as §1"}, "[6]": {"system": "purine auxotrophic yeast (ade2Δ, fui1Δ)", "conditions": "ade2Δ strain; 500 μM adenine plus 125 μM 5-FUrd; OD600 at 24 h", "procedure": "as §1"}, "[7]": {"system": "yeast expressing WT PfENT1", "conditions": "500 μM adenine plus 125 μM 5-FUrd, OD600 at 24 h", "procedure": "as §1"}, "[8]": {"system": "yeast expressing W53C PfENT1", "conditions": "500 μM adenine plus 125 μM 5-FUrd, OD600 at 24 h", "procedure": "as §1"}, "[9]": {"system": "yeast expressing Q135C PfENT1", "conditions": "500 μM adenine plus 125 μM 5-FUrd, OD600 at 24 h", "procedure": "as §1"}, "[10]": {"system": "yeast expressing D287C PfENT1", "conditions": "500 μM adenine plus 125 μM 5-FUrd, OD600 at 24 h", "procedure": "as §1"}}, "note": "Entries after “also recorded” stand apart in the source; their conditions may differ.", "data": [{"smiles": "O=c1[nH]c(=O)n([C@@H]2O[C@H](CO)[C@@H](O)[C@H]2O)cc1F", "note": "[5-FUrd, 5-Fluorouridine]", "values": [{"measurement": "5-FUrd assay", "setting": "[1]", "result": "did not grow; also recorded: killed-functional"}, {"measurement": "5-FUrd assay", "setting": "[2]", "result": "did not grow; also recorded: killed-functional"}, {"measurement": "5-FUrd assay", "setting": "[3]", "result": "did not grow; also recorded: killed-functional"}, {"measurement": "5-FUrd assay", "setting": "[4]", "result": "did grow; also recorded: growth-non-functional*"}, {"measurement": "5-FUrd assay", "setting": "[5]", "result": "did grow; also recorded: growth-non-functional*"}, {"measurement": "5-FUrd assay", "setting": "[6]", "result": "growth-non-functional"}, {"measurement": "5-FUrd assay", "setting": "[7]", "result": "did not grow; also recorded: killed-functional"}, {"measurement": "5-FUrd assay", "setting": "[8]", "result": "did grow; also recorded: growth-non-functional*"}, {"measurement": "5-FUrd assay", "setting": "[9]", "result": "did grow; also recorded: growth-non-functional*"}, {"measurement": "5-FUrd assay", "setting": "[10]", "result": "did grow; also recorded: growth-non-functional*"}]}]}
